15 compounds from PubChem BioAssay AID2038 (NMMLSC, 2009) can be followed below.

Calls of active or inactive are those of the source. The rule behind the calls is not given here. A value given as a limit tells only on which side of the number the result lay.

Chain of GTPase HRas (Homo sapiens) (P01112 whole entry, looked up): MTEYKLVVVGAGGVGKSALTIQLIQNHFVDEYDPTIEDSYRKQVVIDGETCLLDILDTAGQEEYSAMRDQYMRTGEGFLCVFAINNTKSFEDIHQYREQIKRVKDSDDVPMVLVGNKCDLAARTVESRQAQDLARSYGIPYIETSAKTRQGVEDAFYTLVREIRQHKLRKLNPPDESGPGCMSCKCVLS

One test has as its target GTPase HRas (Homo sapiens) (UniProt P01112). Nature of the test: wildtype Ras GTP binding inhibitors, SAR follow-up, biochemical, additional analogs, multiplex flow cytometry, Ki (AID 2038). To be noted: Multiplex bead flow cytometry, fluorescent GTP binding.
On to `O=C1C(c2c(O)[nH]c3c(F)cccc23)=Nc2ccccc21`, for which the EC50 was > 30 µM (inactive).

Take `O=Nc1c(-c2c(O)[nH]c3c(Br)cccc23)[nH]c2ccccc12`: the EC50 was > 37.5 µM (inactive).

`O=C1C(c2c(O)[nH]c3ccccc23)=Nc2ccccc21`: the EC50 is > 30 µM (inactive).

As for `O=C1N=c2ccccc2=C1c1[nH]c(=O)[nH]c1O`, the EC50 was > 30 µM (inactive).

Turning to `O=Nc1c(-c2c(O)[nH]c3ccc(Br)cc23)[nH]c2ccccc12`, the EC50 was > 30 µM (inactive).

Regarding `O=C1C(c2c(O)[nH]c3c(Cl)cccc23)=Nc2ccccc21`, the EC50 is > 30 µM (inactive).

Regarding `O=Nc1c(-c2c(O)[nH]c3c(F)cccc23)[nH]c2ccccc12`, the EC50 is > 30 µM (inactive).

Take `O=C1C(c2c(O)[nH]c3ccc(Br)cc23)=Nc2ccccc21`: the EC50 is > 30 µM (inactive).

For `O=Nc1c(-c2c(O)[nH]c3ccccc23)[nH]c2ccccc12`, the EC50 was > 30 µM (inactive).

Regarding `O=C1C(c2c(O)[nH]c3c(Br)cccc23)=Nc2ccccc21`, the EC50 is > 30 µM (inactive).

With `COc1ccc2cc([C@H](C)C(=O)O)ccc2c1`, the EC50 is > 30 µM (inactive).

As to `O=Nc1c(-c2c(O)[nH]c3c(Cl)cccc23)[nH]c2ccccc12`, the EC50 was > 30 µM (inactive).

In the case of `O=C1N=c2ccccc2=C1c1[nH]c(=S)[nH]c1O`, the EC50 was > 30 µM (inactive).

The test is the same for the next values; noted with them: Multiplex bead flow cytometry, fluorescent GTP binding; measured here: Ki from EC50.
For `O=C(C#Cc1ccccc1)c1ccc(F)cc1`, the Ki came out at 4.84 µM. In other words, the single-digit micromolar range.

Turning to `O=Nc1c(-c2c(O)[nH]c3c(Br)cccc23)[nH]c2ccccc12`, the Ki amounted to 5.85 µM.

On to `COc1ccc2cc([C@@H](C)C(=O)O)ccc2c1`, for which the Ki is 0.49 µM.
